The test system of one assay is SPOP. The following applies: previously described, no reference given; cited from earlier work. The source says:
SPOP derives its name from the […]. Specifically, SPOP colocalizes with nuclear speckles but has also been reported in other subnuclear compartments ([24], [26]). The nuclear speckles that house SPOP in the absence of high concentrations of substrate are liquid-like in nature ([21]). The SPOP substrate DAXX typically localizes to promyelocytic leukemia bodies ([27]).

In another assay the target is T1, SPOP28–359 (Homo sapiens, UniProt O43791).
T1 construct: A plasmid encoding His–SUMO–SPOP human residues 28 to 359; His-SUMO (N, cleaved yes); made in house; host or cells: E. coli Rosetta BL-21(DE3)
The assay is described as follows: Competition fluorescence anisotropy, displacement of f-Puc from oligomeric SPOP28–359. The class given is binding. The settings on record: competition FA; Fig. 5B and Table S4. The source says:
An Escherichia coli codon-optimized DNA sequence encoding amino acids 205 to 283 of the human Pdx1 sequence (Pdx1-C) in the multiple cloning site of pET49b(+) was purchased from GeneArt (Thermo Fisher). The pET49b(+) backbone encodes for N-terminal glutathione S-transferase and 6X His tags, followed by a 3C protease recognition motif. In all experiments described herein, a mutant containing an exogenous tryptophan at the N terminus of the human Pdx1-C sequence was used for the purposes of quantitation. Mutations in Pdx1-C were generated by Q5 site-directed mutagenesis (New England Biolabs) with primers designed on NEBbasechanger.com according to the manufacturer protocol. […]
All FA experiments were conducted in 50 mM sodium phosphate, pH 6.5, 50 mM sodium chloride, 5 mM DTT, 1% BSA, and 0.01% Triton X-100. In all experiments, the source of fluorescence signal was f-Puc purchased from GenScript, at a final concentration of 40 nM. […] The fluorescence polarization of each well was measured (from which FA was calculated) using either a TECAN Infinite M1000 Pro or BioTek Synergy 4 fluorometer. […] FA data points were fit to a complete competitive binding model ([23]) to determine dissociation constants using in-house Python scripts (see Quantification and statistical analysis). […]
A general note: Polarisation of emitted light reports the rotation of a fluorescent probe.

The test system of assay [1] is SPOP-mediated ubiquitination in T-REx-293 cells. The assay can be described thus: SPOP-mediated ubiquitination of Pdx1 variants (Ni-NTA pulldown, immunoblot). The following applies: SPOP–myc and GFP–Pdx1 coexpressed 24 h, then 20 μM MG132 or DMSO for 4 h, immunoblot (Fig. 6C). Type of assay: cell-based. As to the method: We next sought to determine whether SPOP-driven ubiquitination of Pdx1 could occur outside of previously implicated droplets. Given the SPOP relocalization phenotype that we observe in cells that express SPOP and Pdx1, we hypothesized that the ubiquitination activity was occurring in the diffuse nucleoplasm and that optimal activity requires both SB sites. To test this hypothesis, we performed in cell ubiquitination assays with GFP–Pdx1 variants. SPOP–myc and GFP–Pdx1 were coexpressed for 24 h in T-REx-293 cells, followed by a 4-h treatment with 20 μM MG132 or dimethyl sulfoxide. Proteins modified with His-ubiquitin were enriched by pulldown on nickel-nitrilotriacetic acid (Ni-NTA) resin.
A plasmid encoding full-length human Pdx1 (amino acids 1-283) in pcDNA3.1 with a C-terminal GFP tag was purchased from GenScript. Full-length mouse SPOP (identical to the human sequence) with a V5 epitope tag in pcDNA3 was generated previously ([21]). The coding sequence for full-length mouse SPOP was inserted into pcDNA4/TO/myc (Invitrogen) for the T-REx system. pcDNA3-myc-CUL3 (cat no. 19893) and pcDNA–HA2–ROC1 (Rbx1) (cat no. 19897) were obtained from Addgene. pcDNA3 containing His-ubiquitin was a gift from Wenyi Wei.
Ubiquitination and Western blots
T-REx-293 cells (Invitrogen) were seeded at a density of 0.8 × 10^6 per well in 6-well plates (tissue culture–treated plates (cat. no 3516, Corning)). After 24 h, cells were transfected with plasmids encoding Pdx1–GFP, SPOP–myc, His–ubiquitin, HA–Rbx1, and myc–CUL3 (as indicated) using the Qiagen Effectene transfection reagent. 24 h after transfection, the cells were treated with either dimethyl sulfoxide or 20 μM MG132 for 4 h before being harvested. Cells were lysed in buffer A (6 M guanidine HCl, 100 mM sodium phosphate, pH 8.0, and 10 mM imidazole). The lysates were sonicated, cleared, and incubated with Ni-NTA Agarose (Qiagen) for 3 h at RT, followed by 16 h at 4 °C. The beads were washed twice with buffer A and twice with a buffer composed of 1:3 buffer A:buffer T1 (buffer T1: 25 mM Tris HCl, pH 8.0, and 20 mM imidazole). The beads were finally transferred to buffer T1 and then boiled in the SDS-PAGE loading buffer containing 300 mM imidazole. Pdx1 stability assays were performed as described above, except that the cells were not treated with MG132. Cells expressing Pdx1–GFP or a variant were harvested 28 h after transfection, resuspended in 2x SDS-loading dye, and boiled for 5 min before SDS-PAGE analysis.
All proteins were resolved by SDS-PAGE. Separated proteins were analyzed by immunoblotting using either the ECL or the ECL Select Western blotting detection reagents (Amersham). The antibodies used were mouse anti-Pdx1 used at 1:500 for pulldown or 1:2000 for inputs (clone 26771, MAB2419, R&D Systems), mouse anti-myc (1:250, clone 9E10, Santa Cruz Biotechnology), and rabbit anti-GAPDH (1:8000, clone EPR1689, Abcam). horseradish peroxidase-conjugated secondary antibodies were sourced from Jackson ImmunoResearch Laboratories and used at 1:20,000 dilution (goat anti-rabbit IgG, 111-035-003 and goat anti-mouse, 115-035-003).
(A western blot detects proteins with antibodies after separation by electrophoresis.)

T1 sequence (O43791 28-359): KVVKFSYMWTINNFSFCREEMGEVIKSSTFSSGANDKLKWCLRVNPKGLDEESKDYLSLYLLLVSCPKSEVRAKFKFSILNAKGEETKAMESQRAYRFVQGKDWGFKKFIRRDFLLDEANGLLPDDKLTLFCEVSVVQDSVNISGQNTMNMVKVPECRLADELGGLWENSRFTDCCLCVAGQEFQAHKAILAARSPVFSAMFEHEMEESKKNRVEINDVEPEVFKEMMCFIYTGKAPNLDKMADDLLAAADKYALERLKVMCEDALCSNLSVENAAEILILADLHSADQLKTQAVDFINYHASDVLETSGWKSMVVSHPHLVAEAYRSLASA

Consider “Pdx1: full-length human Pdx1 (amino acids 1-283) with a C-terminal GFP tag”, for which the “type of ubiquitination previously described” value in the assay on SPOP is “primarily monoubiquitination”. For the same substance, the “enhancement in binding affinity to oligomeric SPOP28–359 compared with SPOP–MATH” value with SPOP28–359 was about 10 fold. Further, the “ubiquitination of Pdx1 variant” value in assay [1] (listed as GFP–Pdx1–WT) is “is ubiquitinated in cells”; in assay [1] (listed as Pdx1–WT), “robust polyubiquitination”.

Source of the values: article PMC8138767, “Intrinsically disordered substrates dictate SPOP subnuclear localization and ubiquitination activity” (The Journal of Biological Chemistry, 2021).
